Assay results as given in the supplement of paper PMC10627819.

Tests used:
Details in all cases: main component drawn
S. aureus DSM 20231 = assay: Bliss interaction score (quartile over a dose matrix) (fitness difference); higher = more antagonism (negative = synergy)
How it was run: (§1)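 The Bliss score is observed minus expected fitness under the product model, reported as quartiles over technical, biological and donor/recipient replicates. Fitness is the OD595 at entry into stationary phase divided by the plate's robust no-drug mean and capped at 1. Single-drug fitness was inferred from combination data.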

B. subtilis 168 [1] = assay: as above
How it was run: as §1

S. aureus Newman = assay: as above
How it was run: as §1

S. pneumoniae D39V [2] = assay: as above
How it was run: as §1

B. subtilis 168 [3] = assay: fitness (endpoint OD595 vs no drug) (fraction); higher = more growth
How it was run: (§2)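 Plates with 384 wells were inoculated at OD595 0.01 using 30 µl of TSB, LB Lennox or CY, or 55 µl for S. pneumoniae. Incubation was at 37 °C, with OD595 measured every 30 min for 14 h. Fitness is the stationary-phase transition optical density over the robust mean of no-drug control wells, after first-reading background subtraction; it is capped at 1.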

S. pneumoniae D39V [4] = assay: as above
How it was run: as §2
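Throughout, for Bliss interaction score (quartile over a dose matrix): first quartile when negative (synergy) and third quartile when positive (antagonism).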

CNC(C)C1CCC(N)C(OC2C(N)CC(N)C(OC3OCC(C)(O)C(NC)C3O)C2O)O1 (stereo unspecified) [Gentamicin] + CCC[C@@H]1C[C@@H](C(=O)N[C@@H]([C@H]2O[C@H](SC)[C@H](O)[C@@H](O)[C@H]2O)[C@@H](C)O)N(C)C1 [Lincomycin]
Details	Bliss interaction score
B. subtilis 168 [1]	0.1
S. aureus DSM 20231	0.106
S. aureus Newman	0.0735
S. pneumoniae D39V [2]	-0.0859

fitness
Details	partner 0.1 µg/mL	partner 0.2 µg/mL	partner 0.215 µg/mL	partner 0.4 µg/mL	partner 0.43 µg/mL	partner 0.8 µg/mL	partner 0.86 µg/mL
B. subtilis 168 [3], first compound 0.0625 µg/mL	0.851	0.858	–	0.911	–	–	–
B. subtilis 168 [3], first compound 0.25 µg/mL	0.038	0.0459	–	0.121	–	–	–
S. pneumoniae D39V [4], first compound 2 µg/mL	–	0.465	0.858	0.285	0.795	0.0324	0.558
S. pneumoniae D39V [4], first compound 4 µg/mL	–	0.455	0.843	0.257	0.716	0.0339	0.397
S. pneumoniae D39V [4], first compound 8 µg/mL	–	0.389	0.834	0.212	0.741	0.0377	0.41

fitness, B. subtilis 168 [3], one replicate
Details	first compound 0.0625 µg/mL	first compound 0.125 µg/mL	first compound 0.25 µg/mL
partner 0.8 µg/mL	0.989	0.881	0.32
partner 1.6 µg/mL	0.921	0.895	0.367

CC[C@H]1OC(=O)[C@H](C)[C@@H](O[C@H]2C[C@@](C)(OC)[C@@H](O)[C@H](C)O2)[C@H](C)[C@@H](O[C@@H]2O[C@H](C)C[C@H](N(C)C)[C@H]2O)[C@](C)(O)C[C@@H](C)CN(C)[C@H](C)[C@@H](O)[C@]1(C)O [Azithromycin] + CCC(C)C1C(=O)NC(=C)C(=O)NC(C(=O)NC(CSCC(C(=O)N1)NC(=O)/C(=C/C)/NC(=O)C(C(C)CC)N)C(=O)NC2C(SCC(NC(=O)CNC(=O)C3CCCN3C2=O)C(=O)NC(CCCCN)C(=O)NC4C(SCC(NC(=O)CNC(=O)C(NC(=O)C(NC(=O)C(NC(=O)CNC4=O)C)CC(C)C)CCSC)C(=O)NC(CC(=O)N)C(=O)NC(CCSC)C(=O)NC(CCCCN)C(=O)NC5C(SCC6C(=O)NC(C(=O)NC(CSC(C(C(=O)N6)NC(=O)C(NC5=O)C)C)C(=O)NC(CO)C(=O)NC(C(C)CC)C(=O)NC(CC7=CN=CN7)C(=O)NC(C(C)C)C(=O)NC(=C)C(=O)NC(CCCCN)C(=O)O)CC8=CN=CN8)C)C)C)CC(C)C [Nisin]
Details	Bliss interaction score
B. subtilis 168 [1]	0.0397
S. aureus DSM 20231	-0.195
S. aureus Newman	-0.113
S. pneumoniae D39V [2]	-0.0414

fitness, B. subtilis 168 [3]
Details	partner 0.5 µg/mL	partner 1 µg/mL	partner 2 µg/mL
first compound 0.25 µg/mL	0.904	0.837	0.724
first compound 0.5 µg/mL	0.862	0.805	0.636

fitness, B. subtilis 168 [3], one replicate
Details	partner 1.25 µg/mL	partner 1.6 µg/mL	partner 2.5 µg/mL	partner 3.2 µg/mL	partner 4 µg/mL	partner 5 µg/mL	partner 6.4 µg/mL	partner 8 µg/mL	partner 16 µg/mL
first compound 0.25 µg/mL	–	–	–	–	0.0321	–	–	0.0145	0.0145
first compound 0.5 µg/mL	0.889	0.611	0.0285	0.028	0.0372	0.0256	0.0317	0.0317	0.0189
first compound 1 µg/mL	0.844	0.038	0.415	0.0169	0.0347	0.0235	0.0188	0.0359	0.0271
first compound 2 µg/mL	0.358	0.023	0.0636	0.0193	–	0.0032	0.0113	–	–
